# Data: patent US11566047B2, “Peptide or pharmaceutically acceptable salt thereof, or prodrug thereof” (TOKYO UNIVERSITY OF PHARMACY & LIFE SCIENCES, priority 2016, dated 2023)
# Square brackets hold non-standard residues; d marks the D form. Peptide text beside a SMILES is read from it. * marks the point of attachment. Diglycolyl(TOTA) = NCCCOCCOCCOCCCNC(=O)COCC(=O)*; Chg = N[C@H](C(=O)O)C1CCCCC1; X1 = COCCOCCOCCOCCC(=O)*; Ahx = NCCCCCC(=O)O
# Molecular target: T1, myostatin (Homo sapiens, UniProt O14793)
# T1 sequence (O14793 267-375): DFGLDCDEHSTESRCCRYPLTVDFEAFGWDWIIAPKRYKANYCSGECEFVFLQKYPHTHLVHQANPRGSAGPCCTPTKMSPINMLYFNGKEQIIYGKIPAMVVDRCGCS
# Experiment: cell-based
# Conditions: HEK293, read-out: luciferase activity (relative; myostatin without test sample = 100%)
# Experimental: Human embryo kidney cell HEK293 cells were cultured in a 5% (v/v) CO2 incubator set to 37° C. using DMEM (NACALAI TESQUE, INC.) including a 10% (v/v) fetal bovine serum (FBS) added with a 1% (v/v) non-essential amino acid (Wako Pure Chemical Corporation).
# (2) In Vitro Reporter Assay
# HEK293 cells were seeded on a D-Lys-corted 96-well transparent plate (Thermo Fisher Scientific Inc.) in an amount of 2.0×10^4 cells (100 μL DMEM+10% (v/v) FBS) per well and were cultured for 24 hours.
# The cells were cultured at 37° C. for 24 hours, and after the cell culture solution was replaced with serum-free DMEM, the cells were cultured for 8 hours. Incidentally, pGL4.48 [luc2P/SBE/Hygro] includes firefly luciferase reporter gene luc2P under Smad binding region (SBE) control, and when a signaling pathway by the myostatin is activated, intracellular Smad forms a complex, and the complex is bonded to SBE to promote transcription of luc2P.
# The peptide as a test sample was suspended as a stock solution using DMSO to become 10 mM and stored at −30° C. Before 1 hour from addition to the culture medium, the peptide and a myostatin (Merck Millipore Corp.) were suspended with serum-free DMEM and left to stand still at room temperature (25° C.) for 20 minutes. Subsequently, a peptide with an arbitrary final concentration (0.3 to […]) and 8 ng/mL of myostatin were added to the culture medium, and then culturing was performed for 4 hours. After culturing for 4 hours, the culture solution was removed by an aspirator and the cells were washed with 1×PBS. Thereafter, Passive Lysis buffer (Promega Corporation) was added in an amount of 50 μL per well to dissolve the cells. The dissolving solution was subjected to centrifugal separation at 4500 rpm for 6 minutes under the condition of 4° C. After 20 μL of supernatant subjected to centrifugal separation was transferred to a white 96-well plate (Costar), 50 μL of Luciferase Assay Reagent (Promega Corporation) was then added, emission was detected by Luminoskan Ascent (Thermo Fisher Scientific Inc.), and a firefly luciferase activity was measured. Further, after 50 μL of Stop & Glo Buffer (Promega Corporation) was added, emission was detected by Luminoskan Ascent, and a Renilla luciferase activity was measured to be regarded as an internal control.
row,remaining activity at 0.3 µM,Compound
1,≤ 60%,"CC[C@H](C)[C@H](NC(=O)[C@H](Cc1ccc(O)cc1)NC(=O)[C@H](Cc1c[nH]c2ccccc12)NC(=O)CCCCCNC(=O)CCOCCOCCOCCOC)C(=O)N[C@@H](CCC(=O)O)C(=O)N[C@@H](Cc1c[nH]c2ccccc12)C(=O)N[C@H](C(=O)N[C@@H](CCCCN)C(=O)N[C@H](C(=O)N[C@@H](CCC(N)=O)C(=O)N[C@H](C(=O)N[C@@H](Cc1c[nH]c2ccccc12)C(=O)N[C@@H](CO)C(=O)N[C@@H](CCCCN)C(=O)N[C@@H](CC(C)C)C(=O)N[C@@H](CCCNC(=N)N)C(=O)N[C@@H](CC(C)C)C(N)=O)[C@@H](C)CC)[C@@H](C)CC)[C@@H](C)CC [PDM-55, R^111-WYIEWIKIQIWSKLRL-NH2] ({X1-Ahx}-WYIEWIKIQIWSKLRL-NH2)"
2,≤ 60%,"CC[C@H](C)[C@H](NC(=O)[C@H](Cc1ccc(O)cc1)NC(=O)[C@H](Cc1c[nH]c2ccccc12)NC(=O)CCCCCNC(=O)CCOCCOCCOCCOC)C(=O)N[C@@H](CCC(=O)O)C(=O)N[C@@H](CO)C(=O)N[C@H](C(=O)N[C@@H](CCCCN)C(=O)N[C@H](C(=O)N[C@@H](CCC(N)=O)C(=O)N[C@H](C(=O)N[C@@H](Cc1c[nH]c2ccccc12)C(=O)N[C@@H](CO)C(=O)N[C@@H](CCCCN)C(=O)N[C@@H](CC(C)C)C(=O)N[C@@H](CCCNC(=N)N)C(=O)N[C@@H](CC(C)C)C(N)=O)[C@@H](C)CC)[C@@H](C)CC)[C@@H](C)CC [PDM-63, R^111-WYIESIKIQIWSKLRL-NH2] ({X1-Ahx}-WYIESIKIQIWSKLRL-NH2)"
3,≤ 60%,"CC[C@H](C)[C@H](NC(=O)[C@H](CCC(N)=O)NC(=O)[C@@H](NC(=O)[C@H](CCCNC(=N)N)NC(=O)[C@@H](NC(=O)[C@@H](Cc1c[nH]c2ccccc12)NC(=O)[C@H](CCCNC(=N)N)NC(=O)[C@@H](NC(=O)[C@H](Cc1ccc(O)cc1)NC(=O)[C@H](Cc1c[nH]c2ccccc12)NC(=O)CCCCCNC(=O)CCOCCOCCOCCOC)[C@@H](C)CC)[C@@H](C)CC)C1CCCCC1)C(=O)N[C@@H](Cc1c[nH]c2ccccc12)C(=O)N[C@@H](CO)C(=O)N[C@@H](CCCNC(=N)N)C(=O)N[C@H](C(=O)N1CCC[C@H]1C(=O)N[C@@H](CC(C)C)C(N)=O)C1CCCCC1 [PDM-80, R^111-WYIRwIR-Chg-QIWSR-Chg-PL-NH2] ({X1-Ahx}-WYIR[dW]IR[Chg]QIWSR[Chg]PL-NH2)"
4,≤ 60%,"CC[C@H](C)[C@H](NC(=O)[C@H](CCC(N)=O)NC(=O)[C@@H](NC(=O)[C@H](CCCCN)NC(=O)[C@@H](NC(=O)[C@@H](Cc1c[nH]c2ccccc12)NC(=O)[C@H](CCCNC(=N)N)NC(=O)[C@@H](NC(=O)[C@H](Cc1ccc(O)cc1)NC(=O)[C@H](Cc1c[nH]c2ccccc12)NC(=O)CCCCCNC(=O)CCOCCOCCOCCOC)[C@@H](C)CC)[C@@H](C)CC)C1CCCCC1)C(=O)N[C@@H](Cc1c[nH]c2ccccc12)C(=O)N[C@@H](CO)C(=O)N[C@@H](CCCCN)C(=O)N[C@H](C(=O)N[C@@H](CCCNC(=N)N)C(=O)N[C@@H](CC(C)C)C(N)=O)C1CCCCC1 [PDM-86, R^111-WYIRwIK-Chg-QIWSK-Chg-RL-NH2] ({X1-Ahx}-WYIR[dW]IK[Chg]QIWSK[Chg]RL-NH2)"
5,≤ 60%,"CC[C@H](C)[C@H](NC(=O)[C@H](CCC(N)=O)NC(=O)[C@@H](NC(=O)[C@H](CCCCN)NC(=O)[C@@H](NC(=O)[C@@H](Cc1c[nH]c2ccccc12)NC(=O)[C@H](CCCNC(=N)N)NC(=O)[C@@H](NC(=O)[C@H](Cc1ccc(O)cc1)NC(=O)[C@H](Cc1c[nH]c2ccccc12)NC(=O)CCCCCNC(=O)COCC(=O)NCCCOCCOCCOCCCN)[C@@H](C)CC)[C@@H](C)CC)C1CCCCC1)C(=O)N[C@@H](Cc1c[nH]c2ccccc12)C(=O)N[C@@H](CO)C(=O)N[C@@H](CCCCN)C(=O)N[C@H](C(=O)N[C@@H](CCCNC(=N)N)C(=O)N[C@@H](CC(C)C)C(N)=O)C1CCCCC1 [PDM-89, R^115-WYIRwIK-Chg-QIWSK-Chg-RL-NH2] ({Diglycolyl(TOTA)-Ahx}-WYIR[dW]IK[Chg]QIWSK[Chg]RL-NH2)"
6,≤ 60%,"CC[C@H](C)[C@H](NC(=O)[C@H](CCC(N)=O)NC(=O)[C@@H](NC(=O)[C@H](CCCCN)NC(=O)[C@@H](NC(=O)[C@@H](Cc1c[nH]c2ccccc12)NC(=O)[C@H](CCCNC(=N)N)NC(=O)[C@@H](NC(=O)[C@H](Cc1ccc(O)cc1)NC(=O)[C@H](Cc1c[nH]c2ccccc12)NC(=O)CNC(=O)COCC(=O)NCCCOCCOCCOCCCN)[C@@H](C)CC)[C@@H](C)CC)C1CCCCC1)C(=O)N[C@@H](Cc1c[nH]c2ccccc12)C(=O)N[C@@H](CO)C(=O)N[C@@H](CCCCN)C(=O)N[C@H](C(=O)N[C@@H](CCCNC(=N)N)C(=O)N[C@@H](CC(C)C)C(N)=O)C1CCCCC1 [PDM-90, R^116-WYIRwIK-Chg-QIWSK-Chg-RL-NH2] ({Diglycolyl(TOTA)}-GWYIR[dW]IK[Chg]QIWSK[Chg]RL-NH2)"
7,≤ 60%,"CC[C@H](C)[C@H](NC(=O)[C@H](CCC(N)=O)NC(=O)[C@@H](NC(=O)[C@H](CCCCN)NC(=O)[C@@H](NC(=O)[C@@H](Cc1c[nH]c2ccccc12)NC(=O)[C@H](CCCNC(=N)N)NC(=O)[C@@H](NC(=O)[C@H](Cc1ccc(O)cc1)NC(=O)[C@H](Cc1c[nH]c2ccccc12)NC(=O)CNC(=O)CNC(=O)COCC(=O)NCCCOCCOCCOCCCN)[C@@H](C)CC)[C@@H](C)CC)C1CCCCC1)C(=O)N[C@@H](Cc1c[nH]c2ccccc12)C(=O)N[C@@H](CO)C(=O)N[C@@H](CCCCN)C(=O)N[C@H](C(=O)N[C@@H](CCCNC(=N)N)C(=O)N[C@@H](CC(C)C)C(N)=O)C1CCCCC1 [PDM-91, R^117-WYIRwIK-Chg-QIWSK-Chg-RL-NH2] ({Diglycolyl(TOTA)}-GGWYIR[dW]IK[Chg]QIWSK[Chg]RL-NH2)"

# More lines, now with the values behind:
row,Compound,remaining activity at 0.3 µM
1,"CC[C@H](C)[C@H](NC(=O)[C@H](CCC(N)=O)NC(=O)[C@@H](NC(=O)[C@H](CCCCN)NC(=O)[C@@H](NC(=O)[C@H](Cc1c[nH]c2ccccc12)NC(=O)[C@H](CCC(=O)O)NC(=O)[C@@H](NC(=O)[C@H](Cc1ccc(O)cc1)NC(=O)[C@@H](N)Cc1c[nH]c2ccccc12)[C@@H](C)CC)[C@@H](C)CC)[C@@H](C)CC)C(=O)N[C@@H](Cc1c[nH]c2ccccc12)C(=O)N[C@@H](CO)C(=O)N[C@@H](CCCCN)C(=O)N[C@@H](CC(C)C)C(=O)N[C@@H](CCCNC(=N)N)C(=O)N[C@@H](CC(C)C)C(N)=O [nPDM-55, WYIEWIKIQIWSKLRL-NH2] (H-WYIEWIKIQIWSKLRL-NH2)",≤ 60%
2,"CC[C@H](C)[C@H](NC(=O)[C@H](CCC(N)=O)NC(=O)[C@@H](NC(=O)[C@H](CCCCN)NC(=O)[C@@H](NC(=O)[C@H](Cc1c[nH]c2ccccc12)NC(=O)[C@H](CCCCN)NC(=O)[C@@H](NC(=O)[C@H](Cc1ccc(O)cc1)NC(=O)[C@@H](N)Cc1c[nH]c2ccccc12)[C@@H](C)CC)[C@@H](C)CC)[C@@H](C)CC)C(=O)N[C@@H](Cc1c[nH]c2ccccc12)C(=O)N[C@@H](CO)C(=O)N[C@@H](CCCCN)C(=O)N[C@@H](CC(C)C)C(=O)N[C@@H](CCCNC(=N)N)C(=O)N[C@@H](CC(C)C)C(N)=O [nPDM-55/E31K, WYIKWIKIQIWSKLRL-NH2] (H-WYIKWIKIQIWSKLRL-NH2)",≤ 60%
3,"CC[C@H](C)[C@H](NC(=O)[C@H](CCC(N)=O)NC(=O)[C@@H](NC(=O)[C@H](CCCCN)NC(=O)[C@@H](NC(=O)[C@H](Cc1c[nH]c2ccccc12)NC(=O)[C@H](CCC(N)=O)NC(=O)[C@@H](NC(=O)[C@H](Cc1ccc(O)cc1)NC(=O)[C@@H](N)Cc1c[nH]c2ccccc12)[C@@H](C)CC)[C@@H](C)CC)[C@@H](C)CC)C(=O)N[C@@H](Cc1c[nH]c2ccccc12)C(=O)N[C@@H](CO)C(=O)N[C@@H](CCCCN)C(=O)N[C@@H](CC(C)C)C(=O)N[C@@H](CCCNC(=N)N)C(=O)N[C@@H](CC(C)C)C(N)=O [nPDM-55/E31Q, WYIQWIKIQIWSKLRL-NH2] (H-WYIQWIKIQIWSKLRL-NH2)",≤ 60%
4,"CC[C@H](C)[C@H](NC(=O)[C@H](CCC(N)=O)NC(=O)[C@@H](NC(=O)[C@H](CCCCN)NC(=O)[C@@H](NC(=O)[C@H](Cc1c[nH]c2ccccc12)NC(=O)[C@H](CCCNC(=N)N)NC(=O)[C@@H](NC(=O)[C@H](Cc1ccc(O)cc1)NC(=O)[C@@H](N)Cc1c[nH]c2ccccc12)[C@@H](C)CC)[C@@H](C)CC)C1CCCCC1)C(=O)N[C@@H](Cc1c[nH]c2ccccc12)C(=O)N[C@@H](CO)C(=O)N[C@@H](CCCCN)C(=O)N[C@@H](CC(C)C)C(=O)N[C@@H](CCCNC(=N)N)C(=O)N[C@@H](CC(C)C)C(N)=O [nPDM-64, WYIRWIK-Chg-QIWSKLRL-NH2] (H-WYIRWIK[Chg]QIWSKLRL-NH2)",≤ 60%
